The text below walks through data of ChEMBL document CHEMBL1155258, “Computational selection of inhibitors of Abeta aggregation and neuronal toxicity” (Bioorg Med Chem, 2009).

Activity calls are given as the source filed them. The rule behind the calls is not given here.

Data set [1] has as its system N2a. As to the kind of experiment: Neuroprotective activity against amyloid beta-induced neurotoxicity in mouse N2A cells after 24 hrs by MTS assay. It is filed as functional, cell-based.
In data set [2] the test system is N2a. As to the kind of experiment: Neurotoxicity against mouse N2A cells after 24 hrs by MTS assay. The data set is classed as toxicity, cell-based. A general note: Formazan colour is commonly taken as a measure of viable cells.
Data set [3] can be described thus: Inhibition of amyloid beta (1-42) fibril formation after 24 hrs by thioflavin T fluorescence method.
A short description of data set [4]: Inhibition of amyloid beta (1-42) self-aggregation after 24 hrs by sedimentation assay with ELISA.
A short description of data set [5]: Inhibition of amyloid beta (1-42) self-aggregation at 4uM after 24 hrs by sedimentation assay with ELISA. In general terms: In an ELISA, binding on a coated surface is turned into a signal by an enzyme label.

For the compound `COC(=O)C[C@](O)(CCC(C)(C)O)C(=O)O[C@@H]1C(OC)=C[C@]23CCCN2CCc2cc4c(cc2[C@H]13)OCO4` [HARRINGTONINE], the outcome (in the data set on N2a [1]; in data set [3]) was inactive. The Activity entry in the data set with N2a [2] is “Non-toxic”.

As to `CNc1ccc(C(=O)NC(CCCCNC(=O)OCc2ccccc2)C(=O)O)cc1` (centres undefined), the 50% inhibitory concentration (IC50) – broadly, the point on the concentration scale where inhibition reaches its midpoint – in data set [4] is 2.75 µM. For the same compound, the Activity result in the data set with N2a [2] is “Non-toxic”. Further, the inhibition (as a rule, the share of the control response that was lost under treatment) in data set [5] came out at 80%.

`O=C(Cc1ccccc1)NC(CSSCC(NC(=O)Cc1ccccc1)C(=O)O)C(=O)O` (centres undefined) had an IC50 in data set [4] of 1.95 µM. Besides, the Activity entry in the data set on N2a [2] is “Non-toxic”. Further, in data set [5], the inhibition is 80%.
